For the test, the target named is T1, MAGL (Homo sapiens, UniProt Q99685).
T1 sequence (Q99685 1-303): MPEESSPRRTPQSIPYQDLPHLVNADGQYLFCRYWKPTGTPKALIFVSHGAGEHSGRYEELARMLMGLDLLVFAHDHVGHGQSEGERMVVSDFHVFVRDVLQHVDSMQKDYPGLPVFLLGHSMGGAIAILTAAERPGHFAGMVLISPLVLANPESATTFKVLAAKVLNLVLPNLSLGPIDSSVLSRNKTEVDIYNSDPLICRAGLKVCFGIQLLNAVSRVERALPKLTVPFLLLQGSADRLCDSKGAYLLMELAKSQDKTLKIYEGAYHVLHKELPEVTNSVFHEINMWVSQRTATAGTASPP
Put plainly: 2-AG assay (MAGL inhibitory activity, hydrolysis of 2-arachidonoylglycerol followed by mass spectrometry). It counts as biochemical. To be noted: 50 pM MAGL, 8 μM 2-arachidonoylglycerol, 15 min preincubation, 30 min incubation at RT. How it is done: Compounds were profiled for MAGL inhibitory activity by determining the enzymatic activity by following the hydrolysis of the natural substrate 2-arachidonoylglycerol (2-AG) resulting in arachidonic acid, which can be followed by mass spectrometry. This assay is hereinafter abbreviated “2-AG assay”.
The 2-AG assay was carried out in 384 well assay plates (PP, Greiner Cat #784201) in a total volume of 20 μL. Compound dilutions were made in 100% DMSO (VWR Chemicals 23500.297) in a polypropylene plate in 3-fold dilution steps to give a final concentration range in the assay from 12.5 μM to 0.8 pM. 0.25 μL compound dilutions (100% DMSO) were added to 9 μL MAGL in assay buffer (50 mM TRIS (GIBCO, 15567-027), 1 mM EDTA (Fluka, 03690-100 mL), 0.01% (v/v) Tween. After shaking, the plate was incubated for 15 min at RT. To start the reaction, 10 μL 2-arachidonoylglycerol in assay buffer was added. The final concentrations in the assay was 50 pM MAGL and 8 μM 2-arachidonoylglyerol. After shaking and 30 min incubation at RT, the reaction was quenched by the addition of […] of ACN containing 4 μM of d8-arachidonic acid. The amount of arachidonic acid was traced by an online SPE system (Agilent Rapidfire) coupled to a triple quadrupole mass spectrometer (Agilent 6460). A C18 SPE cartridge (G9205A) was used in an ACN/water liquid setup. The mass spectrometer was operated in negative electrospray mode following the mass transitions 303.1→259.1 for arachidonic acid and 311.1→267.0 for d8-arachidonic acid. The activity of the compounds was calculated based on the ratio of intensities [arachidonic acid/d8-arachidonic acid].
Regarding `O=C(c1cccc(N2CC[C@@H](O)C2)c1Cl)N1CCN2C[C@@](O)(c3ccc(Cl)cc3)CC[C@@H]2C1` [Example 45, [(7S,9aR)-7-(4-chlorophenyl)-7-hydroxy-3,4,6,8,9,9a-hexahydro-1H-pyrido[1,2-a]pyrazin-2-yl]-[2-chloro-3-[(3R)-3-hydroxypyrrolidin-1-yl]phenyl]methanone], the midpoint of inhibition, the IC50, lay at 66.8 nM.

`CC1(O)CN(c2cccc(C(=O)N3CCN4C[C@@](O)(c5ccc(Cl)cc5)CC[C@@H]4C3)c2Cl)C1` [Example 46, [(7S,9aR)-7-(4-chlorophenyl)-7-hydroxy-3,4,6,8,9,9a-hexahydro-1H-pyrido[1,2-a]pyrazin-2-yl]-[2-chloro-3-(3-hydroxy-3-methylazetidin-1-yl)phenyl]methanone] yielded an IC50 of 234 nM. Compared with the last compound, the IC50 is about 3.5-fold higher.

`O=C(c1cccc(N2CCC[C@H](O)C2)c1Cl)N1CCN2C[C@@](O)(c3ccc(F)c(Cl)c3)CC[C@@H]2C1` [Example 47, [(7S,9aR)-7-(3-chloro-4-fluorophenyl)-7-hydroxy-3,4,6,8,9,9a-hexahydro-1H-pyrido[1,2-a]pyrazin-2-yl]-[2-chloro-3-[(3S)-3-hydroxypiperidin-1-yl]phenyl]methanone] showed an IC50 of 41.5 nM.

The compound `O=C(c1cccc(N2CCC[C@@H](O)C2)c1Cl)N1CCN2C[C@@](O)(c3ccc(F)c(Cl)c3)CC[C@@H]2C1` [Example 48, [(7S,9aR)-7-(3-chloro-4-fluorophenyl)-7-hydroxy-3,4,6,8,9,9a-hexahydro-1H-pyrido[1,2-a]pyrazin-2-yl]-[2-chloro-3-[(3R)-3-hydroxypiperidin-1-yl]phenyl]methanone] gave an IC50 of 292 nM.

`O=C(c1cccc(N2CCC(O)CC2)c1Cl)N1CCN2C[C@@](O)(c3ccc(Cl)cc3)CC[C@@H]2C1` [Example 49, [(7S,9aR)-7-(4-chlorophenyl)-7-hydroxy-3,4,6,8,9,9a-hexahydro-1H-pyrido[1,2-a]pyrazin-2-yl]-[2-chloro-3-(4-hydroxypiperidin-1-yl)phenyl]methanone] displayed an IC50 of 80.8 nM.

For `O=C(c1cccc(N2C[C@H](O)[C@@H](O)C2)c1Cl)N1CCN2C[C@@](O)(c3ccc(F)c(Cl)c3)CC[C@@H]2C1` [Example 51, [(7S,9aR)-7-(3-chloro-4-fluorophenyl)-7-hydroxy-3,4,6,8,9,9a-hexahydro-1H-pyrido[1,2-a]pyrazin-2-yl]-[2-chloro-3-[(3S,4S)-3,4-dihydroxypyrrolidin-1-yl]phenyl]methanone], half-maximal inhibition (IC50) required 10.9 nM.

`O=C(c1cccc(N2CC(F)(CO)C2)c1Cl)N1CCN2C[C@@](O)(c3ccc(F)c(Cl)c3)CC[C@@H]2C1` [Example 52, [(7S,9aR)-7-(3-chloro-4-fluorophenyl)-7-hydroxy-3,4,6,8,9,9a-hexahydro-1H-pyrido[1,2-a]pyrazin-2-yl]-[2-chloro-3-[3-fluoro-3-(hydroxymethyl)azetidin-1-yl]phenyl]methanone] displayed an IC50 of 84.2 nM.

Consider `O=C(c1cccc(N2CC(CO)C2)c1Cl)N1CCN2C[C@@](O)(c3ccc(F)c(Cl)c3)CC[C@@H]2C1` [Example 53, [(7S,9aR)-7-(3-chloro-4-fluorophenyl)-7-hydroxy-3,4,6,8,9,9a-hexahydro-1H-pyrido[1,2-a]pyrazin-2-yl]-[2-chloro-3-[3-(hydroxymethyl)azetidin-1-yl]phenyl]methanone], for which the IC50 is 79.7 nM.

With `O=C(c1cccc(-c2cc[nH]n2)c1Cl)N1CCN2C[C@@](O)(c3ccc(F)c(Cl)c3)CC[C@@H]2C1` [Example 54, [(7S,9aR)-7-(3-chloro-4-fluorophenyl)-7-hydroxy-3,4,6,8,9,9a-hexahydro-1H-pyrido[1,2-a]pyrazin-2-yl]-[2-chloro-3-(1H-pyrazol-3-yl)phenyl]methanone], the IC50 came to 3.08 nM. This IC50 is about 26-fold lower than that of the compound before.

With `O=C(c1cccc(-c2cc[nH]n2)c1F)N1CCN2C[C@@](O)(c3ccc(F)c(Cl)c3)CC[C@@H]2C1` [Example 55, [(7S,9aR)-7-(3-chloro-4-fluorophenyl)-7-hydroxy-3,4,6,8,9,9a-hexahydro-1H-pyrido[1,2-a]pyrazin-2-yl]-[2-fluoro-3-(1H-pyrazol-3-yl)phenyl]methanone], the IC50 is 9.04 nM.

`O=C(c1cccc(-c2ccsn2)c1F)N1CCN2C[C@@](O)(c3ccc(Cl)cc3)CC[C@@H]2C1` [Example 56, [(7S,9aR)-7-(4-chlorophenyl)-7-hydroxy-3,4,6,8,9,9a-hexahydro-1H-pyrido[1,2-a]pyrazin-2-yl]-[2-fluoro-3-(1,2-thiazol-3-yl)phenyl]methanone]: the IC50 was 37.5 nM.

On to `O=C(c1cccc(-c2[nH]ncc2F)c1Cl)N1CCN2C[C@@](O)(c3ccc(F)c(Cl)c3)CC[C@@H]2C1` [Example 57, [(7S,9aR)-7-(3-chloro-4-fluorophenyl)-7-hydroxy-3,4,6,8,9,9a-hexahydro-1H-pyrido[1,2-a]pyrazin-2-yl]-[2-chloro-3-(4-fluoro-1H-pyrazol-5-yl)phenyl]methanone], for which the IC50 stood at 0.74 nM.

`O=C(c1cccc(-c2ncsn2)c1Cl)N1CCN2C[C@@](O)(c3ccc(F)c(Cl)c3)CC[C@@H]2C1` [Example 58, [(7S,9aR)-7-(3-chloro-4-fluorophenyl)-7-hydroxy-3,4,6,8,9,9a-hexahydro-1H-pyrido[1,2-a]pyrazin-2-yl]-[2-chloro-3-(1,2,4-thiadiazol-3-yl)phenyl]methanone] yielded an IC50 of 14.2 nM. Compared with the last compound, the IC50 is about 19-fold higher.

With `COc1cccc(C(=O)N2CCN3C[C@@](O)(c4ccc(F)c(F)c4)CC[C@@H]3C2)c1Cl` [Example 59, [(7S,9aR)-7-(3,4-difluorophenyl)-7-hydroxy-3,4,6,8,9,9a-hexahydro-1H-pyrido[1,2-a]pyrazin-2-yl]-(2-chloro-3-methoxyphenyl)methanone], inhibition was half-maximal at 11.2 nM (IC50).

As to `COc1cccc(C(=O)N2CCN3C[C@](O)(c4ccc(F)c(F)c4)CC[C@H]3C2)c1Cl` [Example 60, [(7R,9aS)-7-(3,4-difluorophenyl)-7-hydroxy-3,4,6,8,9,9a-hexahydro-1H-pyrido[1,2-a]pyrazin-2-yl]-(2-chloro-3-methoxyphenyl)methanone], the IC50 is 118 nM. Against the preceding compound, the IC50 is about 11-fold higher.

In turn, `O=C(c1cccc(-c2ccn[nH]2)c1F)N1CCN2C[C@@](O)(c3ccc(F)c(F)c3)CC[C@@H]2C1` [Example 61, [(7S,9aR)-7-(3,4-difluorophenyl)-7-hydroxy-3,4,6,8,9,9a-hexahydro-1H-pyrido[1,2-a]pyrazin-2-yl]-[2-fluoro-3-(1H-pyrazol-5-yl)phenyl]methanone] came in with an IC50 of 14 nM.

Take `O=C(c1cccc(-c2[nH]ncc2F)c1F)N1CCN2C[C@@](O)(c3ccc(F)c(F)c3)CC[C@@H]2C1` [Example 62, [(7S,9aR)-7-(3,4-difluorophenyl)-7-hydroxy-3,4,6,8,9,9a-hexahydro-1H-pyrido[1,2-a]pyrazin-2-yl]-[2-fluoro-3-(4-fluoro-1H-pyrazol-5-yl)phenyl]methanone]: the IC50 came out at 20.5 nM.

`O=C(c1cccc(N2CC(O)C2)c1Cl)N1CCN2C[C@@](O)(c3ccc(F)c(F)c3)CC[C@@H]2C1` [Example 63, [(7S,9aR)-7-(3,4-difluorophenyl)-7-hydroxy-3,4,6,8,9,9a-hexahydro-1H-pyrido[1,2-a]pyrazin-2-yl]-[2-chloro-3-(3-hydroxyazetidin-1-yl)phenyl]methanone] displayed an IC50 of 39.4 nM.

Compound `O=C(c1cccc(-c2[nH]ncc2F)c1Cl)N1CCN2C[C@@](O)(c3ccc(C(F)(F)F)cn3)CC[C@@H]2C1` [Example 64] had an IC50 of 13.4 nM.

As for `O=C(c1cccc2c1CCN2)N1CCN2C[C@@](O)(c3ccc(F)c(Cl)c3)CC[C@@H]2C1` [Example 65, [(7S,9aR)-7-(3-chloro-4-fluorophenyl)-7-hydroxy-3,4,6,8,9,9a-hexahydro-1H-pyrido[1,2-a]pyrazin-2-yl]-(2,3-dihydro-1H-indol-4-yl)methanone], the midpoint of inhibition, the IC50, lay at 68.4 nM.

As for `O=C(c1cncc(-c2cc[nH]n2)c1Cl)N1CCN2C[C@@](O)(c3ccc(Cl)cc3)CC[C@@H]2C1` [Example 66, [(7S,9aR)-7-(4-chlorophenyl)-7-hydroxy-3,4,6,8,9,9a-hexahydro-1H-pyrido[1,2-a]pyrazin-2-yl]-[4-chloro-5-(1H-pyrazol-3-yl)pyridin-3-yl]methanone], inhibition was half-maximal at 172 nM (IC50).

The compound `O=C(c1cccc(-c2ccsn2)c1Cl)N1CCN2C[C@@](O)(c3ccc(Cl)cc3)CC[C@@H]2C1` [Example 67, [(7S,9aR)-7-(4-chlorophenyl)-7-hydroxy-3,4,6,8,9,9a-hexahydro-1H-pyrido[1,2-a]pyrazin-2-yl]-[2-chloro-3-(1,2-thiazol-3-yl)phenyl]methanone] returned an IC50 of 14.6 nM.

As usually defined, the IC50 is the concentration that inhibits the measured activity by half.

The record behind these values is US12637454B2, “Heterocyclic monoacylglycerol lipase (MAGL) inhibitors” (Hoffmann-La Roche Inc., priority 2019, dated 2026).
